The structures appear in SMILES notation. Where two headings read alike, the source gives them in different places. Numbered stars: 1 amine (or outer) side, 2 acyl side, 3 side chain; on linkers, the order of the positions; unused ones are H or OH. Bridge positions count the residues as written; N and C are the ends. Square brackets hold non-standard residues; d marks the D form. Peptide text beside a SMILES is read from it. Trimesoyl = O=C(c1cc(C(=O)[*:2])cc(C(=O)[*:3])c1)[*:1]; 2Nal = N[C@@H](Cc1ccc2ccccc2c1)C(=O)O; Dap = NC[C@H](N)C(=O)O; βAla = NCCC(=O)O

In series [1] the test system is HeLa cells. Kind of series: Cellular uptake of FITC-labeled peptides by flow cytometry. Particulars: for Permeability (%), cellular uptake efficiency: FITC-labeled peptide 5 μM, 2 h, relative to CPP1 (100%); for Permeability (%), cellular uptake efficiency / cellular entry efficiency (in words): HeLa cells; for cellular entry efficiency (in words): flow cytometry.
Procedure: (§1) For flow cytometry analysis, HeLa cells were seeded into 12-well plates (1.5×10^5 cells per well) 24 hours before treatment. The next day, 5 μM FITC-labeled peptide in DMEM containing 10% FBS was added to each well and allowed to incubate at 37° c. for 2 hours. […] This washing process was repeated once to remove any free compound and left over trypsin. The washed pellet was resuspended in DPBS with 1% FBS and analyzed on a BD LSR II flow cytometer. Data presented were the mean±SD of three independent experiments.
The test system of series [2] is HeLa cells.
Procedure: as §1
Another series has as its target T1, NEMO-IKKβ interaction (Homo sapiens, UniProt Q9Y6K9).
T1 construct: cells were transformed with a pGEX4T3-NEMO(1-196) plasmid; made in house; host or cells: Escherichia coli BL21(DE3)
Put plainly: HTRF assay of inhibition of the NEMO-IKKβ interaction. It counts as binding. Particulars: for NEMO-binding affinity on Ala substitution (in words): alanine scan of peptide 7; for fold lower NEMO-binding affinity / potency: relative to peptide 7.

The test system of series [3] is NF-κB activation in HEK293(Luc) cells. Kind of series: NF-κB luciferase assay. In kind it is cell-based. The method, then:
The ability of the bicyclic peptidyl inhibitors to inhibit NF-κB Signaling was analyzed. The ability of peptide 7 to enter the cell and block the intracellular NEMO-IKK interaction was assessed by using HEK293(Luc) cells, which harbor a luciferase gene under the transcriptional control of NF-κB. For the NF-κB Luciferase Assays, culture media was exchanged for DMEM containing 10% FBS and 1% penicillin/streptomycin the day before seeding to remove hygromycin B. HEK293(Luc) cells were seeded in 50 μL of assay medium (DMEM, 10% FBS, and 1% penicillin/streptomycin) in an opaque 96-well microplate (3000 cells per well) and incubated overnight. The peptide inhibitors were added to the cells the next day in 5 μL of assay medium and the plate was incubated at 37° c. for 2 h. After that, 5 μL of assay media containing recombinant TNFα (final concentration 5 ng/mL) was added to the wells. The plate was then returned to the incubator for 4 h at 37° c. Finally, 50 μL of ONE-Step luciferase assay reagent was added to each well and after 10 minutes the luminescence was measured on a Tecan Infinite M1000 Pro microplate reader. Data presented were the mean±SD of at least three independent experiments (n=6 for basal activities).

The test system of the next series is A2780 cells. Put plainly: MTT cell viability assay, A2780. In kind it is cell-based. Particulars: 72 hours. On the procedure: For the MTT cell viability assay, HeLa, HEK293, A2780, OSE or A375 cells were seeded into a 96-well microplate (3000 cells/well) in 100 μl of respective growth media and incubated at 37° c. overnight. The next day, a serial dilution of peptide was added to each well in 10 μL of assay medium. The treated cells were incubated at 37° c. with 5% CO2 for 72 hours. Following compound treatment, 10 μL of MTT stock solution (Roche) was added to each well. After an additional 4 h at 37° C., 100 μL of SDS-HCl solubilizing solution was added to each well and the plate was returned to the incubator overnight at 37° c. A Tecan Infinite M1000 Pro microplate reader was used the following morning to measure the absorbance of the formazan product at 565 nm.

A short description of series [4]: Proteolytic stability in human serum (analytical HPLC). The method, then:
The proteolytic stability of peptide 7 was assessed by incubation in human serum at 37° C. and quantitation of the remaining peptide as a function of time by analytical HPLC.

T1 sequence (Q9Y6K9 1-196): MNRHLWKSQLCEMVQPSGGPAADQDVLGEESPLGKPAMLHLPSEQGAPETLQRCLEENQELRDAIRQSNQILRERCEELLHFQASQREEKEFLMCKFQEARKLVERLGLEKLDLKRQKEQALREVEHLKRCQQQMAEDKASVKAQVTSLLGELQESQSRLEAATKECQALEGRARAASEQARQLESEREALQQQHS
Procedure for NEMO-IKKβ interaction: Recombinant GST-NEMO (20 nM), biotin-IKKβKK/RR(701-745) (50 nM), streptavidin labeled with d2 acceptor (2.5 μg/mL), anti-GST monoclonal antibody labeled with Tb donor (2.5 μg/mL), and varying concentrations of peptide (O-100 μM) were mixed in PBS containing 1 mM TCEP and 0.01% Triton X-100 (total volume 20 μL) in a 384-well plate. […] The HTRF signals were measured on a Tecan Infinite M1000 Pro microplate reader and plotted as a function of the peptide concentration. The data was analyzed using GraphPad Prism 6.0 and IC50 values were obtained by fitting the data to the dose-response inhibition curves. Data presented were the mean±SD of three independent experiments.
Expression of GST-NEMO was induced by the addition of isopropyl β-D-1-thiogalactopyranoside (150 μM final concentration). After five hours at 30° C., the cells were harvested by centrifugation. The cell pellet was suspended in 40 mL of lysis buffer (50 mM Tris-HCl, 100 mM NaCl, 0.5 mM MgCl2, 5 mM O-mercaptoethanol, 0.1% Triton-X-100, pH 8.0), 100 μg/mL lysozyme, 100 μL of DNAse I (New England BioLabs), and 100 μL of Halt Protease Inhibitor Cocktail (EDTA-free) (Thermo Scientific). This mixture was stirred at 4° C. for 30 min and briefly sonicated (2×10 s pulses). The crude lysate was centrifuged to yield a clear supernatant, which was directly loaded onto a glutathione-Sepharose 4B column (GE Healthcare). The bound protein was eluted from the column with 10 mM glutathione in 50 mM Tris-HCl (pH 8.0), concentrated to 0.5 mL with the use of Amicon Ultra-15 centrifugal filter units (MWCO 10 kDa), and dialyzed against PBS before flash freezing.
His-thx-IKKbKK/RR(701-745) was similarly expressed in E. coli BL21 (DE3) cells and purified by affinity chromatography using a HisTrap FF column (GE Healthcare). The fusion protein was eluted with 50 mM Tris-HCl (pH 8.0), 300 mM NaCl, 250 mM imidazole, 2 mM O-mercaptoethanol and treated with TEV protease (150 units for 1 mg of fusion protein) for 16 hours at 4° C. to remove the thioredoxin (thx). The resulting protease digestion mixture was reloaded onto the HisTrap column The flow-through fraction was collected and concentrated to about 2 mg/mL using Amicon Ultra-15 centrifugal filter units (MWCO 10 kDa). The IKKbKK/RR(701-745) peptide was biotinylated by treatment with a 10-fold molar excess of biotin-NHS at 4° C. overnight. The biotinylated IKKbKK/RR(701-745) was purified by reversed-phase HPLC equipped with a C18 column and stored frozen at −80° C.

For the molecule `CC[C@H](C)[C@@H]1NC(=O)[C@H](Cc2c[nH]c3ccccc23)NC(=O)CNC(=O)c2cc3cc(c2)C(=O)NC[C@H](NC(=O)[C@H](Cc2ccc(O)cc2)NC1=O)C(=O)N[C@@H](Cc1ccccc1)C(=O)N[C@@H](Cc1ccc2ccccc2c1)C(=O)N[C@@H](CCCNC(=N)N)C(=O)N[C@@H](CCCNC(=N)N)C(=O)N[C@@H](CCCNC(=N)N)C(=O)N[C@H](C(=O)N[C@@H](CCCNC(=N)N)C(=O)NCCC(=O)N[C@@H](CCCCN)C(=O)O)CNC3=O` [Peptide 4, Tm(GWIY)Δ(FΦRRRΔ)-RBK] (GWIY[Dap]F[2Nal]RRR[Dap]R[βAla]K-OH; linker N-5-11 via Trimesoyl; C-terminus assumed), in the series on HeLa cells [1], the “Permeability (%), cellular uptake efficiency” value (from here on “Permeability (%)”) was 71% and the “cellular entry efficiency (in words)” value is reported as “slightly decreased the cellular entry efficiency”.
Take `CC[C@H](C)[C@@H]1NC(=O)[C@H](Cc2c[nH]c3ccccc23)NC(=O)CNC(=O)c2cc3cc(c2)C(=O)NC[C@H](NC(=O)[C@H](Cc2ccc(O)cc2)NC1=O)C(=O)N[C@@H](Cc1ccccc1)C(=O)N[C@@H](Cc1ccc2ccccc2c1)C(=O)N[C@@H](CCCNC(=N)N)C(=O)N[C@H](CCCNC(=N)N)C(=O)N[C@@H](CCCNC(=N)N)C(=O)N[C@H](C(=O)NCCC(=O)NCCC(=O)N[C@@H](CCCCN)C(=O)O)CNC3=O` [Peptide 6, Tm(GWIY)Δ(FΦRrRΔ)-BBK] (GWIY[Dap]F[2Nal]R[dR]R[Dap][βAla][βAla]K-OH; linker N-5-11 via Trimesoyl; C-terminus assumed): in the series on HeLa cells [1], the “Permeability (%)” value stood at 322%. Further, the “increase of uptake efficiency” value in the series on HeLa cells [1] (second arginine replaced with D-arginine, versus peptide 2) amounted to 4.2 fold.
In the case of `CC[C@H](C)[C@@H]1NC(=O)[C@H](Cc2c[nH]c3ccccc23)NC(=O)CNC(=O)c2cc3cc(c2)C(=O)NC[C@@H](C(=O)N[C@H](CCCNC(=N)N)C(=O)NCCC(=O)N[C@@H](CCCCN)C(=O)O)NC(=O)[C@H](CCCNC(=N)N)NC(=O)[C@H](CCCNC(=N)N)NC(=O)[C@H](CCCNC(=N)N)NC(=O)[C@H](Cc2ccc4ccccc4c2)NC(=O)[C@H](Cc2ccccc2)NC(=O)[C@H](CNC3=O)NC(=O)[C@H](Cc2ccc(O)cc2)NC1=O` [Peptide 5, Tm(GWIY)Δ(FΦRRRΔ)-rBK] (GWIY[Dap]F[2Nal]RRR[Dap][dR][βAla]K-OH; linker N-5-11 via Trimesoyl; C-terminus assumed), in the series with HeLa cells [1], the “Permeability (%)” value was 71% and the “cellular entry efficiency (in words)” value is recorded as “slightly decreased the cellular entry efficiency”.
Regarding `CC[C@H](C)[C@@H]1NC(=O)[C@H](Cc2c[nH]c3ccccc23)NC(=O)CNC(=O)c2cc3cc(c2)C(=O)NC[C@H](NC(=O)[C@H](Cc2ccc(O)cc2)NC1=O)C(=O)N[C@@H](Cc1ccccc1)C(=O)N[C@@H](Cc1ccc2ccccc2c1)C(=O)N[C@@H](CCCNC(=N)N)C(=O)N[C@@H](CCCNC(=N)N)C(=O)N[C@@H](CCCNC(=N)N)C(=O)N[C@H](C(=O)NCCC(=O)NCCC(=O)N[C@@H](CCCCN)C(=O)O)CNC3=O` [Peptide 2, Tm(GWIY)Δ(FΦRRRΔ)-BBK] (GWIY[Dap]F[2Nal]RRR[Dap][βAla][βAla]K-OH; linker N-5-11 via Trimesoyl; C-terminus assumed), the “Permeability (%)” value in the series on HeLa cells [1] is on record as 76%.
For `CC[C@H](C)[C@@H]1NC(=O)[C@H](Cc2c[nH]c3ccccc23)NC(=O)CNC(=O)c2cc3cc(c2)C(=O)NC[C@H](NC(=O)[C@H](Cc2ccc(O)cc2)NC1=O)C(=O)N[C@@H](Cc1ccccc1)C(=O)N[C@@H](Cc1ccc2ccccc2c1)C(=O)N[C@@H](CCCNC(=N)N)C(=O)N[C@@H](CCCNC(=N)N)C(=O)N[C@@H](CCCNC(=N)N)C(=O)N[C@@H](CCCNC(=N)N)C(=O)N[C@H](C(=O)NCCC(=O)NCCC(=O)N[C@@H](CCCCN)C(=O)O)CNC3=O` [Peptide 3, Tm(GWIY)Δ(FΦRRRRΔ)-BBK] (GWIY[Dap]F[2Nal]RRRR[Dap][βAla][βAla]K-OH; linker N-5-12 via Trimesoyl; C-terminus assumed), in the series with HeLa cells [2], the “cellular entry efficiency (in words)” value was “slightly decreased the cellular entry efficiency”.
For `CC[C@H](C)[C@@H]1NC(=O)[C@H](Cc2c[nH]c3ccccc23)NC(=O)CNC(=O)c2cc3cc(c2)C(=O)NC[C@@H](C(=O)NCCC(=O)NCCC(=O)N[C@@H](CCCCN)C(=O)O)NC(=O)[C@H](CCCNC(=N)N)NC(=O)[C@@H](CCCNC(=N)N)NC(=O)[C@H](CCCNC(=N)N)NC(=O)[C@H](C)NC(=O)[C@H](Cc2ccccc2)NC(=O)[C@H](CNC3=O)NC(=O)[C@H](C)NC(=O)[C@H](Cc2ccc(O)cc2)NC1=O` [Peptide 16, Tm(GWIYA)Δ(FARrRΔ)-BBK] (GWIYA[Dap]FAR[dR]R[Dap][βAla][βAla]K-OH; linker N-6-12 via Trimesoyl; C-terminus assumed), the “NEMO-binding affinity on Ala substitution (in words)” value on NEMO-IKKβ interaction was “significantly de-creased the NEMO-binding affinity”.
The same measure, in the same setting: in the case of `CC[C@H](C)[C@@H]1NC(=O)[C@H](Cc2c[nH]c3ccccc23)NC(=O)CNC(=O)c2cc3cc(c2)C(=O)NC[C@@H](C(=O)NCCC(=O)NCCC(=O)N[C@@H](CCCCN)C(=O)O)NC(=O)[C@H](CCCNC(=N)N)NC(=O)[C@@H](CCCNC(=N)N)NC(=O)[C@H](CCCNC(=N)N)NC(=O)[C@H](Cc2ccc4ccccc4c2)NC(=O)[C@H](C)NC(=O)[C@H](CNC3=O)NC(=O)[C@H](C)NC(=O)[C@H](Cc2ccc(O)cc2)NC1=O` [Peptide 15, Tm(GWIYA)Δ(AΦRrRΔ)-BBK] (GWIYA[Dap]A[2Nal]R[dR]R[Dap][βAla][βAla]K-OH; linker N-6-12 via Trimesoyl; C-terminus assumed) it was “significantly de-creased the NEMO-binding affinity”.
As for `CC[C@H](C)[C@@H]1NC(=O)[C@H](C)NC(=O)CNC(=O)c2cc3cc(c2)C(=O)NC[C@@H](C(=O)NCCC(=O)NCCC(=O)N[C@@H](CCCCN)C(=O)O)NC(=O)[C@H](CCCNC(=N)N)NC(=O)[C@@H](CCCNC(=N)N)NC(=O)[C@H](CCCNC(=N)N)NC(=O)[C@H](Cc2ccc4ccccc4c2)NC(=O)[C@H](Cc2ccccc2)NC(=O)[C@H](CNC3=O)NC(=O)[C@H](C)NC(=O)[C@H](C)NC1=O` [Peptide 20, Tm(GAIAA)Δ(FΦRrRΔ)-BBK] (GAIAA[Dap]F[2Nal]R[dR]R[Dap][βAla][βAla]K-OH; linker N-6-12 via Trimesoyl; C-terminus assumed), the “effect on TNFα-induced luciferase activity (in words)” value in series [3] was “decreased the luciferase activity only at high concentrations”. In addition, the “fold lower NEMO-binding affinity / potency” value at NEMO-IKKβ interaction is listed as 16 fold. Moreover, the “activity on A2780 viability (in words)” value in the series with A2780 cells is given as “much less active than peptide 7”.
Turning to `CC[C@H](C)[C@H](NC(=O)[C@H](CCCCN)NC(=O)[C@@H](NC(=O)[C@H](CCC(N)=O)NC(=O)[C@@H](N)CCCNC(=N)N)[C@@H](C)CC)C(=O)N[C@@H](Cc1c[nH]c2ccccc12)C(=O)N[C@@H](Cc1ccccc1)C(=O)N[C@@H](CCC(N)=O)C(=O)N[C@@H](CC(N)=O)C(=O)N[C@@H](CCCNC(=N)N)C(=O)N[C@@H](CCCNC(=N)N)C(=O)N[C@@H](CCSC)C(=O)N[C@@H](CCCCN)C(=O)N[C@@H](Cc1c[nH]c2ccccc12)C(=O)N[C@@H](CCCCN)C(=O)N[C@@H](CCCCN)C(=O)NCC(=O)NCC(=O)N[C@H](C(=O)N[C@@H](C)C(=O)N[C@@H](CC(C)C)C(=O)N[C@@H](CC(=O)O)C(=O)N[C@@H](Cc1c[nH]c2ccccc12)C(=O)N[C@@H](CO)C(=O)N[C@@H](Cc1c[nH]c2ccccc12)C(=O)N[C@@H](CC(C)C)C(=O)N[C@@H](CCC(N)=O)C(=O)N[C@H](C(=O)N[C@@H](CCC(=O)O)C(=O)O)[C@@H](C)O)[C@@H](C)O` [Peptide 1, reference compound], the “Permeability (%)” value in the series with HeLa cells [1] is given as 35%. The same molecule had a half-life in series [4] of about 20 min.
On to `C[C@@H]1NC(=O)CNC(=O)c2cc3cc(c2)C(=O)NC[C@@H](C(=O)NCCC(=O)NCCC(=O)N[C@@H](CCCCN)C(=O)O)NC(=O)[C@H](CCCNC(=N)N)NC(=O)[C@@H](CCCNC(=N)N)NC(=O)[C@H](CCCNC(=N)N)NC(=O)[C@H](Cc2ccc4ccccc4c2)NC(=O)[C@H](Cc2ccccc2)NC(=O)[C@H](CNC3=O)NC(=O)[C@H](C)NC(=O)[C@H](C)NC(=O)[C@H](C)NC1=O` [Peptide 21, Tm(GAAAA)Δ(FΦRrRΔ)-BBK] (GAAAA[Dap]F[2Nal]R[dR]R[Dap][βAla][βAla]K-OH; linker N-6-12 via Trimesoyl; C-terminus assumed), for which the “effect on TNFα-induced luciferase activity (in words)” value in series [3] was “decreased the luciferase activity only at high concentrations”. The “fold lower NEMO-binding affinity / potency” value at NEMO-IKKβ interaction is over 100 fold. The “activity on A2780 viability (in words)” value with A2780 cells is recorded as “much less active than peptide 7”.

Source of the values: patent US11339192B2, “Bicyclic peptidyl inhibitors” (priority 2017, dated 2022).
